According to patent publication US12129246B1, “Hydroquinazoline derivatives for the treatment of a disease or disorder” (Novartis AG, priority 2023, dated 2024):
Like-named read-outs stand apart in the source and are kept apart here.

What was measured:
human NPR1 = target: T1, human NPR1 (Homo sapiens, UniProt P16066); assay: Cellular cGMP production assay, human NPR1 expressing CHO-K1 cells (CisBio HTRF); type: cell-based; conditions: for AC50: cGMP production, 30 min at 37° C., 12-point dose-response from 30 μM; for Human NPR1 Amax (% of ANP): maximum cGMP production as percentage of the maximum cGMP produced with ANP
T1 construct: host or cells: CHO-K1
T1 sequence (P16066 33-1061): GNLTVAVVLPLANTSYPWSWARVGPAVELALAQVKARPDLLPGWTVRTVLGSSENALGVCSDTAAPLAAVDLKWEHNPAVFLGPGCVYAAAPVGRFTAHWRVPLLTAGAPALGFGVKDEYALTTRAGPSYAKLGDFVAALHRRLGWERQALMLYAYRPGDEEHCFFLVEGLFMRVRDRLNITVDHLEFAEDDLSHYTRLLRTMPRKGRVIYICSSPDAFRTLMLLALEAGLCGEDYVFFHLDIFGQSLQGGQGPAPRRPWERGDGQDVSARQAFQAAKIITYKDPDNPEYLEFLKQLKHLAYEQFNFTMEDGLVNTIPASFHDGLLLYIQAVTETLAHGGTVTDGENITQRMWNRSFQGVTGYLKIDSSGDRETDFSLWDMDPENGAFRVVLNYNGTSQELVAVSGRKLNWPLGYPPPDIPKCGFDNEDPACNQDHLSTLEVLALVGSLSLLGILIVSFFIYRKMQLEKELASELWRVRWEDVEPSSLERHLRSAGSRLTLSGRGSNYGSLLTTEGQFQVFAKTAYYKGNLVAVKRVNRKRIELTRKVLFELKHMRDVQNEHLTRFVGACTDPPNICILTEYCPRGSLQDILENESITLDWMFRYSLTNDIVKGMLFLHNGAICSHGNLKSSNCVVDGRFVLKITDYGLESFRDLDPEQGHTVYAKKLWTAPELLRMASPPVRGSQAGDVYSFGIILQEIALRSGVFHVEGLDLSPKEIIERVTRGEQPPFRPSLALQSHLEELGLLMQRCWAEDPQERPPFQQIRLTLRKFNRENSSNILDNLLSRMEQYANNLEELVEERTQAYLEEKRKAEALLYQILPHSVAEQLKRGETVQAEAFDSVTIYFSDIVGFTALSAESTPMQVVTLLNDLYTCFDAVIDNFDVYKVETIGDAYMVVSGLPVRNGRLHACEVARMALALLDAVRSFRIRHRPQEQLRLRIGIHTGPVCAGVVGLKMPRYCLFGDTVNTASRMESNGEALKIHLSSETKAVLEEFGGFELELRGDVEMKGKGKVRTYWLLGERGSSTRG
Experimental: (§1) Cellular cGMP is a major second messenger that mediates cell activities and is synthesized by activated NPR1 triggered by binding of the natural ligand ANP. […] The assay was performed according to manufacturer's instructions with minor deviations. […] All compound stocks were diluted in PBS+0.1% BSA at 2-fold the final assay concentration. After addition of 10 μL/well of assay buffer (PBS+0.1% BSA+1 mM IBMX) and 10 μL/well of the compounds in different concentrations (12-point dose-response with 3-fold dilutions from a top concentration of 30 μM), the plate was incubated for 30 min at 37° C. to allow for cGMP production. In parallel, a standard curve using a calibrator (contained in the kit) was generated. The cells were lysed and a mix of cGMP-d2 and anti-cGMP-cryptate was added and incubated for 1 h at room temperature. The readout was performed using an Envision plate reader (PerkinElmer) with an excitation wavelength of 317 nm and an emission wavelength of 665 nm. cGMP concentration (Delta F [° %]) was calculated according to the following formulae: […]

monkey NPR1 = monkey NPR1 (Macaca fascicularis, UniProt A0A7N9DBT9); assay: Cellular cGMP production assay, monkey NPR1 expressing CHO-K1 cells (CisBio HTRF); type: cell-based; conditions: for Monkey NPR1 Amax (% of ANP): maximum cGMP production as percentage of the maximum cGMP produced with ANP
Experimental: as §1

[1] = cGMP production, monkey NPR1 CHO-K1 cells, 30 min at 37° C., 12-point dose-response from 30 μM, read-out: Monkey NPR1 AC50

monkey NPR1, sequence (A0A7N9DBT9 entry or part of it): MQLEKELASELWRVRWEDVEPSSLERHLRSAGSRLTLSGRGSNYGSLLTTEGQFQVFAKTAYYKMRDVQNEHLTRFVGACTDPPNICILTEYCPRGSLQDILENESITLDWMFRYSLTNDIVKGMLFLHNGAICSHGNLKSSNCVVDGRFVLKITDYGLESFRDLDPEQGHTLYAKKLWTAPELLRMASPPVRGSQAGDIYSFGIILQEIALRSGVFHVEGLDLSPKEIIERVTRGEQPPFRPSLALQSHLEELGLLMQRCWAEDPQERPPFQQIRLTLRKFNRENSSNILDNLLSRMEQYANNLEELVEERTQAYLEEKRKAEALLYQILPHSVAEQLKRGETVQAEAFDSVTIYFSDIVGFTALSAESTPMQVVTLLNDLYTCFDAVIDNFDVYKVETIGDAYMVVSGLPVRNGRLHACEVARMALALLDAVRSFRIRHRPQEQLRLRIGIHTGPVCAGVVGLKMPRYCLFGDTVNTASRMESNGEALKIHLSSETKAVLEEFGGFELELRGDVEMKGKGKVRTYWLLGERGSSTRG

Row | Structure (SMILES) | AC50 (human NPR1) [nM] | Human NPR1 Amax (% of ANP) (human NPR1) | AC50 (monkey NPR1; [1]) [nM] | Monkey NPR1 Amax (% of ANP) (monkey NPR1; monkey NPR1 CHO-K1 cells) | AC50 (monkey NPR1) [nM]
1 | CC[C@@H](N(C)c1nc2c(c(N[C@@H](CN3CCCCCC3)c3cnn(C)c3)n1)C[C@H](c1cccc(F)c1)CC2)C12CC(C(=O)O)(C1)C2 [Compound 1, 3-((R)-1-(((R)-4-(((R)-2-(azepan-1-yl)-1-(1-methyl-1H-pyrazol-4-yl)ethyl)amino)-6-(3-fluorophenyl)-5,6,7,8-tetrahydroquinazolin-2-yl)(methyl)amino)propyl)bicyclo[1.1.1]pentane-1-carboxylic acid] | 14 | 93.788 % of ANP | 10 | 97.462 % of ANP | 
2 | CC[C@@H](Nc1nc2c(c(N[C@@H](CN3CCC[C@H](C)C3)c3cnn(C)c3)n1)C[C@](C)(c1cccc(F)c1)CC2)[C@H]1CC[C@H](C(=O)O)CC1 [Compound 2, (1R,4r)-4-((R)-1-(((R)-6-(3-fluorophenyl)-6-methyl-4-(((R)-1-(1-methyl-1H-pyrazol-4-yl)-2-((S)-3-methylpiperidin-1-yl)ethyl)amino)-5,6,7,8-tetrahydroquinazolin-2-yl)amino)propyl)cyclohexane-1-carboxylic acid] | 42 | 96.935 % of ANP | 44 | 103.371 % of ANP | 
3 | CC[C@@H](Nc1nc2c(c(N[C@@H](CN3CCCCCC3)c3cnn(C)c3)n1)C[C@H](c1cccc(F)c1)CC2)[C@H]1CC[C@H](C(=O)O)CC1 [Compound 3, (1R,4r)-4-((R)-1-(((R)-4-(((R)-2-(azepan-1-yl)-1-(1-methyl-1H-pyrazol-4-yl)ethyl)amino)-6-(3-fluorophenyl)-5,6,7,8-tetrahydroquinazolin-2-yl)amino)propyl)cyclohexane-1-carboxylic acid] | 66 | 105.403 % of ANP | 45 | 107.571 % of ANP | 
4 | CC[C@@H](N(C)c1nc2c(c(N[C@H](CN3CCCCCC3)c3cnn(C)c3)n1)C[C@H](c1cccc(F)c1)CC2)C12CC(C(=O)O)(C1)C2 [Compound 4, 3-((R)-1-(((R)-4-(((S)-2-(azepan-1-yl)-1-(1-methyl-1H-pyrazol-4-yl)ethyl)amino)-6-(3-fluorophenyl)-5,6,7,8-tetrahydroquinazolin-2-yl)(methyl)amino)propyl)bicyclo[1.1.1]pentane-1-carboxylic acid] | 72 | 99.041 % of ANP | 70 | 101.838 % of ANP | 
5 | CC[C@@H](Nc1nc2c(c(N[C@@H](CN3CCC[C@H](C)C3)c3cnn(C)c3)n1)C[C@](C)(c1ccc(F)cc1)CC2)[C@H]1CC[C@H](C(=O)O)CC1 [Compound 5, (1R,4r)-4-((R)-1-(((R)-6-(4-fluorophenyl)-6-methyl-4-(((R)-1-(1-methyl-1H-pyrazol-4-yl)-2-((S)-3-methylpiperidin-1-yl)ethyl)amino)-5,6,7,8-tetrahydroquinazolin-2-yl)amino)propyl)cyclohexane-1-carboxylic acid] | 72 | 85.741 % of ANP | 68 | 104.503 % of ANP | 
6 | CC[C@@H](N(C)c1nc2c(c(N[C@@H](CN3C4CCCC3CCC4)c3cnn(C)c3)n1)C[C@H](c1cccc(F)c1)CC2)C12CC(C(=O)O)(C1)C2 [Compound 6, 3-((R)-1-(((R)-4-(((R)-2-((1S,5S)-9-azabicyclo[3.3.1]nonan-9-yl)-1-(1-methyl-1H-pyrazol-4-yl)ethyl)amino)-6-(3-fluorophenyl)-5,6,7,8-tetrahydroquinazolin-2-yl)(methyl)amino)propyl)bicyclo[1.1.1]pentane-1-carboxylic acid] | 77 | 98.462 % of ANP |  | 98.535 % of ANP | 58
7 | CC[C@H]([C@H]1CC[C@H](C(=O)O)CC1)N(C)c1nc2c(c(N[C@@H](CN3CCC[C@H](C)C3)c3cnn(C)c3)n1)C[C@](C)(c1ccccc1)CC2 [Compound 7, (1R,4r)-4-((R)-1-(methyl((R)-6-methyl-4-(((R)-1-(1-methyl-1H-pyrazol-4-yl)-2-((S)-3-methylpiperidin-1-yl)ethyl)amino)-6-phenyl-5,6,7,8-tetrahydroquinazolin-2-yl)amino)propyl)cyclohexane-1-carboxylic acid] | 80 | 97.105 % of ANP | 50 | 102.341 % of ANP | 
8 | CC[C@@H](N(C)c1nc2c(c(N[C@@H](CN3CCC[C@H](C)C3)c3cnn(C)c3)n1)C[C@](C)(c1ccccc1)CC2)C12CC(C(=O)O)(C1)C2 [Compound 8, 3-((R)-1-(methyl((R)-6-methyl-4-(((R)-1-(1-methyl-1H-pyrazol-4-yl)-2-((S)-3-methylpiperidin-1-yl)ethyl)amino)-6-phenyl-5,6,7,8-tetrahydroquinazolin-2-yl)amino)propyl)bicyclo[1.1.1]pentane-1-carboxylic acid] | 87 | 92.409 % of ANP | 77 | 101.778 % of ANP | 
9 | CC[C@@H](N(C)c1nc2c(c(N[C@@H](CN3CCC[C@H](C)C3)c3cnn(C)c3)n1)C[C@H](c1cccc(F)c1)CC2)C12CC(C(=O)O)(C1)C2 [Compound 9, 3-((R)-1-(((R)-6-(3-fluorophenyl)-4-(((R)-1-(1-methyl-1H-pyrazol-4-yl)-2-((S)-3-methylpiperidin-1-yl)ethyl)amino)-5,6,7,8-tetrahydroquinazolin-2-yl)(methyl)amino)propyl)bicyclo[1.1.1]pentane-1-carboxylic acid] | 88 | 95.056 % of ANP | 45 | 95.667 % of ANP | 
10 | CC[C@@H](Nc1nc2c(c(N[C@@H](CN3C4CCCC3CCC4)c3cnn(CC)c3)n1)C[C@@H](c1cccc(F)c1)CC2)[C@H]1CC[C@H](C(=O)O)CC1 [Compound 10, (1R,4r)-4-((R)-1-(((S)-4-(((R)-2-((1S,5S)-9-azabicyclo[3.3.1]nonan-9-yl)-1-(1-ethyl-1H-pyrazol-4-yl)ethyl)amino)-6-(3-fluorophenyl)-5,6,7,8-tetrahydroquinazolin-2-yl)amino)propyl)cyclohexane-1-carboxylic acid] | 91 | 96.065 % of ANP |  | 97.058 % of ANP | 73
11 | CC[C@@H](N(C)c1nc2c(c(N[C@@H](CN3C4CCCC3CCC4)c3cnn(C)c3)n1)C[C@H](c1ccc(F)cc1)CC2)C12CC(C(=O)O)(C1)C2 [Compound 11, 3-((R)-1-(((R)-4-(((R)-2-((1S,5S)-9-azabicyclo[3.3.1]nonan-9-yl)-1-(1-methyl-1H-pyrazol-4-yl)ethyl)amino)-6-(4-fluorophenyl)-5,6,7,8-tetrahydroquinazolin-2-yl)(methyl)amino)propyl)bicyclo[1.1.1]pentane-1-carboxylic acid] | 94 | 103.738 % of ANP |  | 113.853 % of ANP | 70
12 | CC[C@@H](N(C)c1nc2c(c(N[C@@H](CN3CCC[C@H](CF)C3)c3cnn(C)c3)n1)C[C@](C)(c1ccccc1)CC2)C12CC(C(=O)O)(C1)C2 [Compound 12, 3-((R)-1-(((R)-4-(((R)-2-((S)-3-(fluoromethyl)piperidin-1-yl)-1-(1-methyl-1H-pyrazol-4-yl)ethyl)amino)-6-methyl-6-phenyl-5,6,7,8-tetrahydroquinazolin-2-yl)(methyl)amino)propyl)bicyclo[1.1.1]pentane-1-carboxylic acid] | 94 | 96.068 % of ANP | 73 | 95.099 % of ANP | 
